Results as given in paper PMC9226319, “Peripherally restricted transthyretin-based delivery system for probes and therapeutics avoiding opioid-related side effects” (Nature Communications, 2022).
Several values for one entry are separate records, joined by “and”; a condition that tells them apart may be missing. Equal values may be shown once. Read-outs that look alike come from different tables or passages of the source.

Columns and labels:
TTR in human serum = TTR in human serum (Homo sapiens, UniProt P02766); experiment: TTR serum fluorescent probe exclusion (FPE) selectivity assay; assay type: binding; settings: ligand 10 µM; for %FPE probe fluorescence: human serum, replicates
male Sprague-Dawley rats [1] = experiment: Gastrointestinal (GI) transit (charcoal meal) assays; assay type: in vivo, rat
[2] = rat; for plasma concentration: IV 4.84 µmol/kg, individual animals
[3] = rat; for plasma concentration: SC 16 µmol/kg, individual animals
male Sprague-Dawley rats [4] = settings: rat, in vivo, sc
[5] = molecular target: T1, kappa opioid receptor (rat) (Rattus norvegicus, UniProt P34975); settings: read-out: binding affinity to kappa-opioid receptor (Ki); cited from earlier work
T1 construct: Eurofins Cerep (France)
T1 sequence (P34975 whole entry): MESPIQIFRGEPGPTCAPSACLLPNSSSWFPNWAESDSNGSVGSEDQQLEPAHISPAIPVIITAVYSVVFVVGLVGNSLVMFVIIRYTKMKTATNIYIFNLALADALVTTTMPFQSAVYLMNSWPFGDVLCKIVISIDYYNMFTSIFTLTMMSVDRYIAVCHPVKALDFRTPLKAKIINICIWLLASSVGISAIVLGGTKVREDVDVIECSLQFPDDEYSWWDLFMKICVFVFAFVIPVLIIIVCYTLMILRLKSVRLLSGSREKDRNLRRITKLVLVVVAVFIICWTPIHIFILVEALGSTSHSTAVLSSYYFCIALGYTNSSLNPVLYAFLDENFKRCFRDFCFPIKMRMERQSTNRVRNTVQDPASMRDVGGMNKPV

in vivo [6] = settings: male, Sprague Dawley, rat, iv
in vivo [7] = settings: male, Sprague Dawley, rat, iv; remark: listed apart in the source
in vivo [8] = settings: male, Sprague Dawley, rat, sc
in vitro = settings: human, % Cell viability, replicates

In the case of `C=CCN1CC[C@]23c4c5ccc(O)c4O[C@H]2[C@@H](OCCOCCOCCOCCOCCOCCOCCOC)CC[C@@]3(O)[C@H]1C5` [Naloxegol, reference compound], the “% TTR occupancy in human serum” value (TTR in human serum; FPE probe 3.6 µM, 3 h reading relative to probe alone, text mean ± s.d., table replicates) is reported as 14.09% and 13.76% and 18.08% and 17.39%, the “%FPE probe fluorescence” value (TTR in human serum; time 0.000 h) is reported as 0.000% and the “%FPE probe fluorescence” value (TTR in human serum; time 0.083 h) is reported as -1.162% and 0.076% and 1.061% and 2.494%. For the same compound, the “%FPE probe fluorescence” value (TTR in human serum; time 0.250 h) was 12.642% and 13.881% and 14.653% and 16.580%, the “%FPE probe fluorescence” value (TTR in human serum; time 0.500 h) was 29.770% and 29.601% and 35.277% and 32.978% and the “%FPE probe fluorescence” value (TTR in human serum; time 1.000 h) was 51.856% and 49.775% and 51.097% and 53.857%. The “%FPE probe fluorescence” value (TTR in human serum; time 1.250 h) was 58.967% and 56.462% and 55.901% and 61.434%, the “%FPE probe fluorescence” value (TTR in human serum; time 1.500 h) was 63.979% and 62.154% and 61.352% and 66.100% and the “%FPE probe fluorescence” value (TTR in human serum; time 1.750 h) was 70.669% and 69.322% and 65.355% and 73.049%. For the same compound, the “%FPE probe fluorescence” value (TTR in human serum; time 2.000 h) was 72.778% and 74.065% and 70.075% and 75.601%, the “%FPE probe fluorescence” value (TTR in human serum; time 2.250 h) was 79.286% and 77.129% and 72.043% and 79.051% and the “%FPE probe fluorescence” value (TTR in human serum; time 2.500 h) was 80.847% and 80.185% and 76.560% and 80.986%. For the same compound, the “%FPE probe fluorescence” value (TTR in human serum; time 2.750 h) was 84.987% and 82.916% and 77.033% and 84.908%, the “%FPE probe fluorescence” value (TTR in human serum; time 3.000 h) was 85.911% and 86.240% and 81.919% and 82.607% and the “%FPE probe fluorescence” value (TTR in human serum; time 3.500 h) was 89.826% and 88.173% and 84.101% and 88.948%. The “%FPE probe fluorescence” value (TTR in human serum; time 3.750 h) was 85.342% and 89.201% and 87.815% and 89.262%, the “%FPE probe fluorescence” value (TTR in human serum; time 4.000 h) was 92.972% and 91.077% and 85.636% and 94.755% and the “%FPE probe fluorescence” value (TTR in human serum; time 4.250 h) was 92.674% and 90.338% and 87.389% and 92.827%. The “%FPE probe fluorescence” value (TTR in human serum; time 4.500 h) was 93.747% and 95.743% and 86.912% and 94.592%, the “%FPE probe fluorescence” value (TTR in human serum; time 4.750 h) was 93.049% and 92.357% and 88.468% and 95.740% and the “%FPE probe fluorescence” value (TTR in human serum; time 5.000 h) was 94.380% and 93.149% and 88.822% and 94.667%. For the same compound, the “%FPE probe fluorescence” value (TTR in human serum; time 5.250 h) was 94.178% and 93.087% and 90.315% and 94.928%, the “%FPE probe fluorescence” value (TTR in human serum; time 5.500 h) was 92.258% and 94.965% and 88.366% and 97.216% and the “%FPE probe fluorescence” value (TTR in human serum; time 5.750 h) was 93.772% and 93.937% and 90.079% and 96.029%. For the same compound, the “%FPE probe fluorescence” value (TTR in human serum; time 6.000 h) was 96.902% and 93.100% and 91.727% and 96.188%, the “GI transit 2.5h as % of saline group” value (male Sprague-Dawley rats [1]; 3.5 μmol/kg, 2.5h, individual animals (Fig.9b)) was 41.7% and 40.4% and 35.2% and 39.7% and 39.3% and 42.0% and the “GI transit as % of saline group” value (male Sprague-Dawley rats [1]; rat, in vivo, sc) was 39.7 ± 2.5%. The plasma concentration ([2]; 0.03 h) was 2193.9 nM and 2301.3 nM, the plasma concentration ([2]; 0.5 h) was 144.7 nM and 149.7 nM and the plasma concentration ([2]; 1 h) was 58 nM and 27.2 nM and 41.1 nM. The plasma concentration ([2]; 2 h) was 16.1 nM and 15.5 nM, the plasma concentration ([2]; 4 h) was 4.6 nM and 6.8 nM and the plasma concentration ([2]; 6 h) was 1.8 nM and 4 nM and 5.8 nM. For the same compound, the plasma concentration ([2]; 8 h) was 2.3 nM and 1.4 nM, the k ([2]; single IV bolus 4.84 µmol/kg) was 0.41 ± 0.06 h⁻¹ and the plasma concentration ([3]; 0.03 h) was 247 nM and 451 nM and 135 nM. The plasma concentration ([3]; 0.25 h) was 1100 nM and 1090 nM, the plasma concentration ([3]; 0.5 h) was 1750 nM and 2300 nM and the plasma concentration ([3]; 0.75 h) was 1870 nM and 2090 nM. For the same compound, the plasma concentration ([3]; 1 h) was 1410 nM and 2160 nM, the plasma concentration ([3]; 2 h) was 517 nM and 744 nM and the plasma concentration ([3]; 4 h) was 95.6 nM and 149 nM and 239 nM. The plasma concentration ([3]; 6 h) was 19 nM and 31.8 nM and 56.3 nM, the plasma concentration ([3]; 8 h) was 3.9 nM and 6.7 nM and 10.6 nM and the k ([3]; single SC dose 16 µmol/kg) was 0.79 ± 0.02 h⁻¹. For the same compound, the hot plate latency (male Sprague-Dawley rats [4]) was 17.6 ± 4.0 s, the Ki [5] was 8.7 nM and the Kp (in vivo [6]; percentage CSF to plasma ratio) was 0.15. For the same compound, the Kp (in vivo [6]; percentage brain to plasma ratio) was 0.29, the AUC(0-inf) (in vivo [7]; 4.84 umol/kg) was 0.741 ± 0.0336 µM·h and the Vd (in vivo [7]; 4.84 umol/kg) was 2.76 ± 0.39 L/kg. For the same compound, the clearance (in vivo [7]; 4.84 umol/kg) was 109 mL/min/kg, the half-life (in vivo [7]; 4.84 umol/kg) was 1.72 ± 0.27 h and the concentration at 0.03 h (in vivo [7]; 4.84 µmol/kg, plasma concentration, IV 4.84 µmol/kg, 0.03 h, individual animals) was 1900 nM. The concentration at 0.5 h (in vivo [7]; 4.84 µmol/kg, plasma concentration, IV 4.84 µmol/kg, 0.5 h, individual animals) was 206 nM, the concentration at 2 h (in vivo [7]; 4.84 µmol/kg, plasma concentration, IV 4.84 µmol/kg, 2 h, individual animals) was 17.8 nM and the concentration at 4 h (in vivo [7]; 4.84 µmol/kg, plasma concentration, IV 4.84 µmol/kg, 4 h, individual animals) was 9.2 nM. The concentration at 8 h (in vivo [7]; 4.84 µmol/kg, plasma concentration, IV 4.84 µmol/kg, 8 h, individual animals) was 2.5 nM, the AUC(0-inf) (in vivo [8]; 16 umol/kg) was 3.68 ± 0.566 µM·h and the CL/F (in vivo [8]; 16 umol/kg) was 72.8 mL/min/kg. For the same compound, the Vd/F (in vivo [8]; 16 umol/kg) was 5.58 ± 0.96 L/kg, the half-life (in vivo [8]; 16 umol/kg) was 0.88 ± 0.02 h and the concentration at 0.25 h (in vivo [8]; 16 µmol/kg, plasma concentration, SC 16 µmol/kg, 0.25 h, individual animals) was 1930 nM. It also gave a concentration at 0.5 h (in vivo [8]; 16 µmol/kg, plasma concentration, SC 16 µmol/kg, 0.5 h, individual animals) of 2470 nM, a concentration at 0.75 h (in vivo [8]; 16 µmol/kg, plasma concentration, SC 16 µmol/kg, 0.75 h, individual animals) of 2870 nM and a concentration at 1 h (in vivo [8]; 16 µmol/kg, plasma concentration, SC 16 µmol/kg, 1 h, individual animals) of 1970 nM. For the same compound, the concentration at 2 h (in vivo [8]; 16 µmol/kg, plasma concentration, SC 16 µmol/kg, 2 h, individual animals) was 548 nM, the viability at 72 h, 10 µM (in vitro; 10 μM) was 103% and the viability at 72 h, 100 µM (in vitro; 100 μM) was 99%.
